# Columns and labels:
# Assay type in all cases: cell-based
# [1] = molecular target: Ba/F3 EML4-ALK v1 I1171N/D1203N (Homo sapiens (Human), UniProt Q9HC35+Q9UM73, D1203N/I1171N); test: Ba/F3 cell proliferation assay, EML4-ALK v1 I1171N/D1203N; settings: for IC50: Ba/F3 stable cells, 72 hours, CellTiter-Glo; for ETV6-TRKB / EML4-ALK v1 I1171N/D1203N / Selectivity for Ba/F3 EML4-ALK v1 I1171N-D1203N IC50 over Ba/F3 ETV6-TRKB IC50: TRKB selectivity, ratio of Ba/F3 IC50 values; for Selectivity for Ba/F3 EML4-ALK v1 I1171N-D1203N IC50 over Ba/F3 ETV6-TRKB IC50: Table 6 bins
# Sequence of Ba/F3 EML4-ALK v1 I1171N/D1203N (Q9UM73 other isoform, or with tags, fused parts or gaps I1171N/D1203N): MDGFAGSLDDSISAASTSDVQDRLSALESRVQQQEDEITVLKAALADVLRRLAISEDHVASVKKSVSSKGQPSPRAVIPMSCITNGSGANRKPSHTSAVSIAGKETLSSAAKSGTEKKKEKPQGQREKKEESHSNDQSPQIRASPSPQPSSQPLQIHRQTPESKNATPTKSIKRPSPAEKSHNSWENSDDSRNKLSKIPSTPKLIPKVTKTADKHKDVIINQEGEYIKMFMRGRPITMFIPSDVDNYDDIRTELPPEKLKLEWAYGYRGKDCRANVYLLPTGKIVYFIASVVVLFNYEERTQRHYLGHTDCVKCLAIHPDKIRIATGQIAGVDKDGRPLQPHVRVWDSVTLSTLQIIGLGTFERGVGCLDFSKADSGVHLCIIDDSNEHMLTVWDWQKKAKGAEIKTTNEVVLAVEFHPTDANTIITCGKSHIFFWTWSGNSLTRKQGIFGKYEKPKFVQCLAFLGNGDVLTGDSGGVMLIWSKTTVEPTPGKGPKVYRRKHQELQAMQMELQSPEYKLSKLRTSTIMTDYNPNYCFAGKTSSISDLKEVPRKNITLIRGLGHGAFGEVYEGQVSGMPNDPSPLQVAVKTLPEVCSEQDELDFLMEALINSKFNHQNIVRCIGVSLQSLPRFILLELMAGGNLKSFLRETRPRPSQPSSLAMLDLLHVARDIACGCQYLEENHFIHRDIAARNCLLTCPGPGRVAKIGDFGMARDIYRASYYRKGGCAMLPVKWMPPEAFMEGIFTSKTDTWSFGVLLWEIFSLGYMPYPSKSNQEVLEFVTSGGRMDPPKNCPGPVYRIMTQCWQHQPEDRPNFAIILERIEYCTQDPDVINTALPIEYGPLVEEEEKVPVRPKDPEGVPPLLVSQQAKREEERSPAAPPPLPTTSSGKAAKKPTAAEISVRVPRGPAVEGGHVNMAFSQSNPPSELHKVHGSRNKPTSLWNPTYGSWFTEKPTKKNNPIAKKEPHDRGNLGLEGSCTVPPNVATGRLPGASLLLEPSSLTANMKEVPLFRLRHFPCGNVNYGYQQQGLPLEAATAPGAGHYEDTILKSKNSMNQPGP
# From the text: (§1) Genes encoding EML4-ALK v1 (variant 1), EML4-ALK v1 G1202R, EML4-ALK v1 I1171IN, EML4-ALK v1 D1203N, EML4-ALK v1 I1171N/D1203N, and ETV6-TRKB were synthesized at GeneRay, cloned into the retroviral construct pMSCV-puro (Biovector), and packaged into retroviral particles. The virus was used to infect Ba/F3 cells (RIKEN) at multiplicity of infection=1 for 1 day. Infected cells were rescued in media (RPMI-1640 with 10% fetal bovine serum and 1% streptomycin and penicillin) supplemented with mouse IL-3 (10 ng/mL) for 2 days, and stable cell lines were selected by IL-3 withdrawal and puromycin (0.8 μg/mL) for 7 days. Monoclones were selected by single-cell dilution in IL-3-free medium containing puromycin (0.8 μg/mL). Transformation of desired genes was confirmed by Sanger sequencing and western blot using the following antibodies: ALK (CST #3633) and pan-TRK (Abcam #76291).
# (§2) Stable cells were plated in a 384-well plate. Test compounds were then added in a 3-fold dilution series and incubated for 72 hours. CellTiter-Glo reagent (Promega) was added. Luminescence was measured on a plate reader. Half-maximal inhibitory concentration (ICso) was calculated from percent inhibition and inhibitor concentration using four-parameter logistic regression. Compound potency can be interpreted by binning IC50 values: bin A for high potency, 0.1 nM IC50<50 nM; bin B for medium potency, 50 nM<IC50<500 nM; and bin C for low potency, IC50>500 nM. […] Exemplary data is given in Table 4 (nd is not determined).
# (§3) Ba/F3 proliferation is driven by the transduced oncogenes in the same way that cancer cell proliferation in humans is driven by the expression of equivalent oncogenes.
# (§4) TRKB selectivity was calculated by dividing a compound's TRKB potency by its primary target potency (e.g., ETV6-TRKB IC50/EML4-ALK v1 IC50). Compound selectivity can be interpreted by binning ratio values: bin A for very high selectivity, ratio≥30-fold; bin B for high selectivity, ratio≥10-fold but<30; bin C for moderate selectivity, ratio≥1 but<10; and bin D for low selectivity, ratio<1. […] (nd=not determined).
# Additional exemplified compounds were also tested against ALK-INDN and TRKB. The TRKB selectivity was calculated by dividing a compound's TRKB potency by its primary target potency (e.g., ETV6-TRKB IC50/EMIL4-ALK I1171N-D1203N v1 IC50). Compound selectivity can be interpreted by binning ratio values: bin AA for the selectivity with the ratio≥30-fold; bin BB for the selectivity with the ratio≥10-fold but<30; bin CC for the selectivity with the ratio≥5 but<10; bin DD for the selectivity with the ratio≥1 but<5; and bin EE for the selectivity with the ratio<1.
# Ba/F3 EML4-ALK v1 I1171N = Ba/F3 EML4-ALK v1 I1171N (Homo sapiens (Human), UniProt Q9HC35+Q9UM73, I1171N); test: Ba/F3 cell proliferation assay, EML4-ALK v1 I1171N; settings: for IC50: Ba/F3 stable cells, 72 hours, CellTiter-Glo; for ETV6-TRKB / EML4-ALK v1 I1171N: TRKB selectivity, ratio of Ba/F3 IC50 values
# Sequence of Ba/F3 EML4-ALK v1 I1171N (Q9UM73 other isoform, or with tags, fused parts or gaps I1171N): as the sequence (Q9UM73 other isoform, or with tags, fused parts or gaps I1171N/D1203N) above, with N642D counted along it
# From the text: as §1, §2, §3, §4
# Ba/F3 ETV6-TRKB = Ba/F3 ETV6-TRKB (Homo sapiens, UniProt Q16620); test: Ba/F3 cell proliferation assay, ETV6-TRKB; settings: Ba/F3 stable cells, 72 hours, CellTiter-Glo; read-out: ETV6-TRKB IC50
# Sequence of Ba/F3 ETV6-TRKB (Q16620 32-822 limits assumed, change not shown): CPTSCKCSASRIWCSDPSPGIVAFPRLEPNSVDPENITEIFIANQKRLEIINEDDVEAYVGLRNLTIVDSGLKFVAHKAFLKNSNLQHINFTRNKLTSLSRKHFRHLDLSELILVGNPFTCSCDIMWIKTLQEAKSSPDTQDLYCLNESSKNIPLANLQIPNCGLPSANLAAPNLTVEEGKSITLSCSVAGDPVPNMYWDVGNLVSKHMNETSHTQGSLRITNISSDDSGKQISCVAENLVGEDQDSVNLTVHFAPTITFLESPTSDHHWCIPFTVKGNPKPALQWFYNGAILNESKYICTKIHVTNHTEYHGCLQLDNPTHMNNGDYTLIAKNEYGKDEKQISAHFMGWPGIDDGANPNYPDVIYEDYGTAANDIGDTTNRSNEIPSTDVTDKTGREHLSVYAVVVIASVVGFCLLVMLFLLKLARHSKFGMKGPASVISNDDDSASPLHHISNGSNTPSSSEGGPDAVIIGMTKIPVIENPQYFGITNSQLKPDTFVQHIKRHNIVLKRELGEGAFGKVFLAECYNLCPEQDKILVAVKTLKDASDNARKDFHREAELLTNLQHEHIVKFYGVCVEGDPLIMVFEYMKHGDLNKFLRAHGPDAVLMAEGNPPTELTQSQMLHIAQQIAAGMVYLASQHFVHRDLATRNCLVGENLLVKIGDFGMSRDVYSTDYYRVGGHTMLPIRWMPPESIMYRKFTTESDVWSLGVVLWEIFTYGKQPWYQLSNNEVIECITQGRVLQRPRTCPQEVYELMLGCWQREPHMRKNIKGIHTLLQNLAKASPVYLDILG
# From the text: as §1, §2, §3
Structure (SMILES),IC50 [1],ETV6-TRKB / EML4-ALK v1 I1171N/D1203N [1],Selectivity for Ba/F3 EML4-ALK v1 I1171N-D1203N IC50 over Ba/F3 ETV6-TRKB IC50 [1],IC50 (Ba/F3 EML4-ALK v1 I1171N),ETV6-TRKB / EML4-ALK v1 I1171N (Ba/F3 EML4-ALK v1 I1171N),IC50 (Ba/F3 ETV6-TRKB)
"COCCn1nc2c(c1C#N)-c1cnc(N)c(c1)O[C@H](C)c1cc(F)ccc1-c1ncccc1C2=O [Example 52, (R)-23-amino-17-fluoro-4-(2-methoxyethyl)-20-methyl-7-oxo-21-oxa-4,5,12,24-tetraazapentacyclo[20.3.1.0^2,^6.0^8,^13.0^14,^19]hexacosa-1(25),2,5,8,10,12,14,16,18,22(26),23-undecaene-3-carbonitrile]",0.0001 to 0.05 µM,"A (bin A for very high selectivity, ratio≥30-fold)",AA (bin AA for the selectivity with the ratio≥30-fold),0.0001 to 0.05 µM,"A (bin A for very high selectivity, ratio≥30-fold)",0.05 to 0.5 µM
"CCn1ncc2c1-c1cnc(N)c(c1)O[C@H](C)c1cc(F)ccc1-c1nn(C)cc1C2=O [Example 15, (R)-22-amino-3-ethyl-16-fluoro-10-methyl-19-methyl-20-oxa-3,4,10,11,23-pentaazapentacyclo[19.3.1.0^2,^6.0^8,^12.0^13,^18]pentacosa-1(24),2(6),4,8,11,13,15,17,21(25),22-decaen-7-one]",0.05 to 0.5 µM,"C (bin C for moderate selectivity, ratio≥1 but<10)",DD (bin DD for the selectivity with the ratio≥1 but<5),> 0.5 µM,"D (bin D for low selectivity, ratio<1)",0.05 to 0.5 µM
"CC(C)n1nc2c(c1C#N)-c1cnc(N)c(c1)O[C@H](C)c1cc(F)ccc1-c1ncccc1C2=O [Example 51, (R)-23-amino-17-fluoro-4-isopropyl-20-methyl-7-oxo-21-oxa-4,5,12,24-tetraazapentacyclo[20.3.1.0^2,^6.0^8,^13.0^14,^19]hexacosa-1(25),2,5,8,10,12,14,16,18,22(26),23-undecaene-3-carbonitrile]",0.0001 to 0.05 µM,"A (bin A for very high selectivity, ratio≥30-fold)",AA (bin AA for the selectivity with the ratio≥30-fold),0.0001 to 0.05 µM,"A (bin A for very high selectivity, ratio≥30-fold)",0.05 to 0.5 µM
"C[C@H]1Oc2cc(cnc2N)-c2c(nn(C)c2C#N)C(=O)c2cn(C)nc2-c2c(F)cc(F)cc21 [Example 26, (R)-22-amino-14,16-difluoro-4,10-dimethyl-19-methyl-7-oxo-20-oxa-4,5,10,11,23-pentaazapentacyclo[19.3.1.0^2,^6.0^8,^12.0^13,^18]pentacosa-1(24),2,5,8,11,13,15,17,21(25),22-decaene-3-carbonitrile]",0.0001 to 0.05 µM,"A (bin A for very high selectivity, ratio≥30-fold)",AA (bin AA for the selectivity with the ratio≥30-fold),0.05 to 0.5 µM,"A (bin A for very high selectivity, ratio≥30-fold)",> 0.5 µM
"CCn1nc2c(c1C#N)-c1cnc(N)c(c1)O[C@H](C)c1cc(F)ccc1-c1ncccc1C2=O [Example 50, (R)-23-amino-4-ethyl-17-fluoro-20-methyl-7-oxo-21-oxa-4,5,12,24-tetraazapentacyclo[20.3.1.0^2,^6.0^8,^13.0^14,^19]hexacosa-1(25),2,5,8,10,12,14,16,18,22(26),23-undecaene-3-carbonitrile]",0.0001 to 0.05 µM,"A (bin A for very high selectivity, ratio≥30-fold)",AA (bin AA for the selectivity with the ratio≥30-fold),0.0001 to 0.05 µM,"A (bin A for very high selectivity, ratio≥30-fold)",0.05 to 0.5 µM
"C[C@H]1Oc2cc(cnc2N)-c2c(nn(C)c2CC2CC2)C(=O)c2cccnc2-c2ccc(F)cc21 [Example 53, (R)-23-amino-3-(cyclopropylmethyl)-17-fluoro-4-methyl-20-methyl-21-oxa-4,5,12,24-tetraazapentacyclo[20.3.1.0^2,^6.0^8,^13.0^14,^19]hexacosa-1(25),2,5,8,10,12,14,16,18,22(26),23-undecaen-7-one]",0.0001 to 0.05 µM,"A (bin A for very high selectivity, ratio≥30-fold)",,0.05 to 0.5 µM,"B (bin B for high selectivity, ratio≥10-fold but<30)",> 0.5 µM
"C[C@H]1Oc2nc(cnc2N)-c2c(nn(C)c2C#N)C(=O)c2cccnc2-c2c(F)cc(F)cc21 [Example 82, (R)-23-amino-15,17-difluoro-4-methyl-20-methyl-7-oxo-21-oxa-4,5,12,24,26-pentaazapentacyclo[20.3.1.0^2,6.0^8,13.0^14,19]hexacosa-1(25),2,5,8(13),9,11,14,16,18,22(26),23-undecaene-3-carbonitrile]",0.0001 to 0.05 µM,"A (bin A for very high selectivity, ratio≥30-fold)",,0.0001 to 0.05 µM,"C (bin C for moderate selectivity, ratio≥1 but<10)",0.05 to 0.5 µM
"Cc1ccc2c(n1)-c1ccc(F)cc1[C@@H](C)Oc1cc(cnc1N)-c1c(C#N)nn(C(=O)N(C)C)c1C2 [Example 72, N,N-dimethyl-(R)-23-amino-3-cyano-17-fluoro-11,20-dimethyl-21-oxa-4,5,12,24-tetraazapentacyclo[20.3.1.0^2,^6.0^8,^13.0^14,^19]hexacosa-1(25),2(6),3,8(13),9,11,14,16,18,22(26),23-undecaene-5-carboxamide]",0.05 to 0.5 µM,"B (bin B for high selectivity, ratio≥10-fold but<30)",,0.05 to 0.5 µM,"A (bin A for very high selectivity, ratio≥30-fold)",> 0.5 µM
"C[C@H]1Oc2cc(cnc2N)-c2c(C3CCC3)nn(C(=O)N(C)C)c2Cc2cccnc2-c2ccc(F)cc21 [Example 57, (R)-5-(N,N-dimethylcarbamoyl)-3-cyclobutyl-17-fluoro-20-methyl-21-oxa-4,5,12,24-tetraazapentacyclo[20.3.1.0^2,^6.0^8,^13.0^14,^19]hexacosa-1(25),2(6),3,8(13),9,11,14,16,18,22(26),23-undecaen-23-ylamine]",0.0001 to 0.05 µM,,,0.0001 to 0.05 µM,,0.05 to 0.5 µM
"C[C@H]1Oc2cc(cnc2N)-c2c(n[nH]c2C#N)C(=O)c2cccnc2-c2c(F)cc(F)cc21 [Example 77, (R)-23-amino-15,17-difluoro-20-methyl-7-oxo-21-oxa-4,5,12,24-NH2 tetraazapentacyclo[20.3.1.0^2,6.0^8,13.0^14,19]hexacosa-1(25),2,5,8,10,12,14,16,18,22(26),23-undecaene-3-carbonitrile]",0.0001 to 0.05 µM,"A (bin A for very high selectivity, ratio≥30-fold)",,0.0001 to 0.05 µM,"B (bin B for high selectivity, ratio≥10-fold but<30)",0.05 to 0.5 µM
"C[C@H]1Oc2cc(cnc2N)-c2c(C#N)nn(C(=O)N(C)C)c2Cc2cccnc2-c2c(F)cc(F)cc21 [Example 71, N,N-dimethyl-(R)-23-amino-3-cyano-15,17-difluoro-20-methyl-21-oxa-4,5,12,24-tetraazapentacyclo[20.3.1.0^2,^6.0^8,^13.0^14,^19]hexacosa-1(25),2(6),3,8(13),9,11,14,16,18,22(26),23-undecaene-5-carboxamide]",0.05 to 0.5 µM,"B (bin B for high selectivity, ratio≥10-fold but<30)",,0.05 to 0.5 µM,"B (bin B for high selectivity, ratio≥10-fold but<30)",> 0.5 µM

# Reference: patent US20250326769A1, “HETEROAROMATIC MACROCYCLIC ETHER CHEMOTHERAPEUTIC AGENTS” (Nuvalent, Inc., priority 2022, published 2025)
